These results are taken from PMC10655391, “Inhibition of Hsp110-STAT3 interaction in endothelial cells alleviates vascular remodeling in hypoxic pulmonary arterial Hypertension model” (Respiratory Research, 2023).

Bounds are passed on as bounds.

The experiment addresses T1, Hsp110 (Homo sapiens, UniProt Q92598).
T1 construct: gene HSPH1; purified recombinant human Hsp110 (His6-SUMO tag cleaved)
In words: luciferase anti-aggregation assay with purified Hsp110 at […] (single concentration). It counts as biochemical. The note with it: read-out: % reduction of anti-aggregating activity at 100 μM.

T1 sequence (Q92598 whole entry): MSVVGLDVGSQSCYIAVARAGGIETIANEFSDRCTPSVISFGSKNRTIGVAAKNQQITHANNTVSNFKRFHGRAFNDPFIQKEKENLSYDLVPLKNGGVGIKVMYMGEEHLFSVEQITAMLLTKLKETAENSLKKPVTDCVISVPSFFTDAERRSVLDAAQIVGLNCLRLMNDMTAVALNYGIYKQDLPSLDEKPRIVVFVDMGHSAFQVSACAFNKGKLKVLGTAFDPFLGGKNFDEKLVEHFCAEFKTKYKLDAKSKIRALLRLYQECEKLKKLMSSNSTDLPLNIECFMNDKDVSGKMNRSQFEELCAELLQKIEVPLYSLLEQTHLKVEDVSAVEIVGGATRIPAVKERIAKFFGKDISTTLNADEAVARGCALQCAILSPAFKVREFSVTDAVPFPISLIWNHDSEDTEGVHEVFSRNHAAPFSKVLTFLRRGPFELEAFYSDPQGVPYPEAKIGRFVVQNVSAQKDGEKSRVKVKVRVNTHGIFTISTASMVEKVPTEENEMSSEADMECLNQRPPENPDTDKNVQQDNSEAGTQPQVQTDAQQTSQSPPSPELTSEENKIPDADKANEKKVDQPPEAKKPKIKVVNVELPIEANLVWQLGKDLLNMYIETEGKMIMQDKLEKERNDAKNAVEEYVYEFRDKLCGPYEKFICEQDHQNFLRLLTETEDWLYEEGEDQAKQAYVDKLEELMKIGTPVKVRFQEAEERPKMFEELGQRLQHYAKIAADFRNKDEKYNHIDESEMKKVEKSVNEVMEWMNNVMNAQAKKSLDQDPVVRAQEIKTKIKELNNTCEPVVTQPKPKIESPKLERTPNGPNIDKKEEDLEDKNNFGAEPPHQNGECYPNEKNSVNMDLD

With `Cc1ccccc1COc1nc2c(cc1-c1nc(N)cc(N)n1)c(C)nn2-c1ccccc1` [compound 5], the inhibition at 100 µM is greater than 50%.

On to `Cc1nn(-c2ccccc2)c2nc(OCc3cnc(Cl)s3)c(-c3nc(N)cc(N)n3)cc12` [compound 8], for which the inhibition at 100 µM was greater than 50%.
